Laboratory results published in patent US8445677B2, “Substituted pyrimidyl guanidine derivatives having anticancer activity” (University of Southern California, priority 2008, dated 2013).
Where two headings read alike, the source gives them in different places.

Tests used:
Experiment in all cases: MTT cytotoxicity assay (Example 2)
HCT116 p53+/+ = type: cell-based; details: Homo sapiens
Description: (§1) Human breast cancer cell lines MDA-MB-435 and SkBr-3 were purchased from the American Type Culture Collection (Manassas, Va.). The HCT116 P53+/+ and HCT116 P53−/− cell lines were kindly provided by Dr. Bert Vogelstein (Johns Hopkins Medical Institutions, Baltimore, Md.). The HEY human ovarian carcinoma cell line was kindly provided by Dr. Louis Dubeau (University of Southern California Norris Cancer Center). Cells were maintained as monolayer cultures in media supplemented with 10% fetal bovine serum (Gemini-Bioproducts, Woodland, Calif.) and 2 mmo/lL-glutamine at 37° C. in a humidified atmosphere of 5% C02. To remove the adherent cells from the flask for passaging and counting, cells were washed with PBS without calcium or magnesium, incubated with a small volume of 0.25% trypsin-EDTA solution (Sigma-Aldrich, St. Louis, Mo.) for 5-10 min, and washed with culture medium and centrifuged. All experiments were performed using cells in exponential growth stage. Cells were routinely checked for mycoplasma contamination using a PCR-based assay (Stratagene, Cambridge, UK).
(§2) Stock solutions (10 mM) of all compounds were prepared in DMSO and stored at −20° C. Further dilutions were made fresh in cell-culture media just prior to cell treatment.
(§3) Cytotoxicity was assessed by a 3-(4,5-dimethylthiazol-2-yl)-2,5-diphenyltetrazolium bromide (MTT) assay as previously described.^23 Cells were seeded in 96-well plates and allowed to attach overnight. Cells were subsequently treated with continuous exposure to the corresponding drug for 72 h. An MTT solution (at a final concentration of 0.5 mg/ml) was added to each well, and cells were incubated for 4 h at 37° C. After removal of the medium, DMSO was added and the absorbance was read at 570 nm. All assays were performed in triplicate. The IC50 was determined for each drug from a plot of log (drug concentration) versus percentage of cells killed.

HCT116 p53−/− = type: cell-based; details: Homo sapiens, HCT-116, 72 h
Description: as §1, §2, §3

MDA-MB-435 = type: cell-based; details: Homo sapiens, MDA-MB-435, 72 h
Description: as §1, §2, §3

HEY = type: cell-based, human; details: Homo sapiens, 72 h
Description: as §1, §2, §3

SkBr-3 = type: cell-based, human; details: Homo sapiens, SK-BR-3, 72 h
Description: as §1, §2, §3

[1] = HCT-116, 72 h, MTT, 72 h, read-out: IC50 Hct116 p53+/+

Structure (SMILES): Oc1ccc(CN2CCN(Cc3ccccc3)CC2)c2cccnc12 [15-SMD58-8]
- IC50 (HCT116 p53+/+; [1]): 1700 ± 700 nM
- IC50 (HCT116 p53−/−): 2500 ± 1600 nM
- IC50 (MDA-MB-435): 5400 ± 700 nM
- IC50 (HEY): 1800 ± 700 nM
- IC50 (SkBr-3): 1700 ± 700 nM

Structure (SMILES): CCOc1ccc(NCc2ccc(O)c3ncccc23)cc1 [16-SMD58-11]
- IC50 (HCT116 p53+/+; [1]): 2300 ± 100 nM
- IC50 (HCT116 p53−/−): 1200 ± 200 nM
- IC50 (MDA-MB-435): 4900 ± 1100 nM
- IC50 (HEY): 1700 ± 100 nM
- IC50 (SkBr-3): 3000 ± 1300 nM

Structure (SMILES): Oc1ccc(Cc2ccc(O)c3ncccc23)c2cccnc12 [11-SMD58-1]
- IC50 (HCT116 p53+/+; [1]): 450 nM
- IC50 (HCT116 p53+/+; HCT-116, p53+/+ cell line, read-out: IC50): < 1000 nM
- IC50 (HCT116 p53−/−): 250 ± 500 nM
- IC50 (MDA-MB-435): 2800 ± 1700 nM
- IC50 (HEY): 100 nM
- IC50 (SkBr-3): 1400 ± 800 nM

Structure (SMILES): Cc1cccc(NCc2ccc(O)c3ncccc23)c1 [17-SMD58-12]
- IC50 (HCT116 p53+/+; [1]): 1800 ± 400 nM
- IC50 (HCT116 p53−/−): 1900 ± 400 nM
- IC50 (MDA-MB-435): 6600 nM
- IC50 (HEY): 1500 ± 800 nM
- IC50 (SkBr-3): 4000 ± 500 nM

Structure (SMILES): CCN1CCN(Cc2ccc(O)c3ncccc23)CC1 [22-SMD58-20]
- IC50 (HCT116 p53+/+; [1]): 2100 nM
- IC50 (HCT116 p53−/−): 2100 ± 1200 nM
- IC50 (MDA-MB-435): 7200 ± 400 nM
- IC50 (HEY): 1400 ± 200 nM
- IC50 (SkBr-3): 4100 ± 100 nM

Structure (SMILES): CCOC(=O)Cc1cc(=O)nc(Nc2nc3ccccc3s2)[nH]1 [6-SMD18-1]
- IC50 (HCT116 p53+/+; [1]): 3400 ± 200 nM
- IC50 (HCT116 p53−/−): 4000 ± 2000 nM
- IC50 (MDA-MB-435): 9500 nM
- IC50 (SkBr-3): > 10000 nM

Structure (SMILES): CCCOc1ccc(NC(=N)Nc2nc(C)cc(C)n2)cc1 [3-SMD6-5]
- IC50 (HCT116 p53+/+; [1]): > 10000 nM
- IC50 (HCT116 p53−/−): 8100 ± 600 nM
- IC50 (MDA-MB-435): > 10000 nM
- IC50 (HEY): > 10000 nM
- IC50 (SkBr-3): > 10000 nM

Structure (SMILES): CCOC(=O)C1CCCN(Cc2ccc(O)c3ncccc23)C1 (centres unmarked) [12-SMD58]
- IC50 (HCT116 p53+/+; [1]): 1600 ± 400 nM
- IC50 (HCT116 p53−/−): 2000 ± 100 nM
- IC50 (MDA-MB-435): 4200 ± 1200 nM
- IC50 (HEY): 900 nM
- IC50 (SkBr-3): 2200 ± 900 nM

Structure (SMILES): CCC(=O)NC(c1cccs1)c1cc([N+](=O)[O-])c2cccnc2c1O (centres unmarked) [26-SMD58-27]
- IC50 (HCT116 p53+/+; [1]): 5000 ± 400 nM
- IC50 (HCT116 p53−/−): 4200 ± 1200 nM
- IC50 (MDA-MB-435): 5600 nM
- IC50 (HEY): 3200 ± 800 nM
- IC50 (SkBr-3): 4600 ± 800 nM

Structure (SMILES): CCOC(=O)N1CCN(Cc2ccc(O)c3ncccc23)CC1 [13-SMD58-5]
- IC50 (HCT116 p53+/+; [1]): 2100 ± 200 nM
- IC50 (HCT116 p53−/−): 1000 ± 100 nM
- IC50 (MDA-MB-435): 5300 ± 100 nM
- IC50 (HEY): 1900 nM
- IC50 (SkBr-3): 3700 ± 500 nM

Structure (SMILES): Oc1ccc(CN2CCCCC2)c2cccnc12 [20-SMD58-18]
- IC50 (HCT116 p53+/+; [1]): 6800 ± 1300 nM
- IC50 (HCT116 p53−/−): 6500 ± 800 nM
- IC50 (MDA-MB-435): 8900 nM
- IC50 (HEY): 5000 ± 1600 nM
- IC50 (SkBr-3): 8600 ± 1400 nM

Structure (SMILES): CN1CCN(Cc2ccc(O)c3ncccc23)CC1 [14-SMD58-7]
- IC50 (HCT116 p53+/+; [1]): 700 ± 400 nM
- IC50 (HCT116 p53−/−): 1700 ± 200 nM
- IC50 (MDA-MB-435): 3900 ± 100 nM
- IC50 (HEY): 400 nM
- IC50 (SkBr-3): 3200 ± 100 nM

Structure (SMILES): Cc1cccnc1NCc1ccc(O)c2ncccc12 [23-SMD58-22]
- IC50 (HCT116 p53+/+; [1]): 1400 ± 400 nM
- IC50 (HCT116 p53−/−): 1500 ± 100 nM
- IC50 (MDA-MB-435): 3100 ± 600 nM
- IC50 (HEY): 2800 nM
- IC50 (SkBr-3): 3300 ± 700 nM
